Earlier results in patent publication US20110040266A1, “ANTI-INSOMNIA COMPOSITIONS AND METHODS” (priority 2007, published 2011).

Conditions: tablet form; administered from 5 hours to 1 hour before waking

Q: With `Cc1ccc(-c2nc3ccc(C)cn3c2CC(=O)N(C)C)cc1` [zolpidem, N,N,6-trimethyl-2-p-tolyl-imidazo[1,2-a]pyridine-3-acetamide] as the molecule, how does the “residual effects of night-time dosing” value read?
A: results in residual drowsiness and sleepiness
